Laboratory results taken from ChEMBL document CHEMBL1201862, “PubChem BioAssay data set” (2004).
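Interpolation was linear, between the two tested concentrations surrounding the appropriate level; five concentrations were tested over 48 hours in 96-well plates. GI50: concentration for 50% inhibition of growth.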 Activity calls are given as the source filed them. Cut-off read from the data, not from the text of the source: active = GI50 up to about 1.1 µM and inactive = higher.

Columns and labels:
Assay in all cases: DTP human tumour cell line panel, 48 h
NCI-H226 = tested on: NCI-H226
OVCAR-4 = tested on: OVCAR-4
SW-620 = tested on: SW-620
SNB-75 = tested on: SNB-75
SNB-19 = tested on: SNB-19
SK-MEL-2 = tested on: SK-MEL-2
IGROV-1 = tested on: IGROV-1
NCI-H522 = tested on: NCI-H522
HCT-116 = tested on: HCT-116
OVCAR-3 = tested on: OVCAR-3
HCC 2998 = tested on: HCC 2998
HOP-92 = tested on: HOP-92
CCRF-CEM = tested on: CCRF-CEM
UACC-257 = tested on: UACC-257
NCI/ADR-RES = tested on: NCI/ADR-RES
KM12 = tested on: KM12
SF-539 = tested on: SF-539
SR = tested on: SR
HL-60 = tested on: HL-60
RXF 393 = tested on: RXF 393

Measured: GI50

CC(=O)ON(C(C)=O)c1ccc(-c2nc3ccccc3s2)cc1C
inactive: NCI-H226 2.6 µM | OVCAR-4 51.4 µM | SW-620 38.3 µM | SNB-75 74.1 µM | SNB-19 50.1 µM | SK-MEL-2 > 100 µM | IGROV-1 13 µM | NCI-H522 38.5 µM | HCT-116 23.4 µM | OVCAR-3 25.8 µM | HCC 2998 67.6 µM | HOP-92 43.6 µM | CCRF-CEM 23.7 µM | UACC-257 50 µM | NCI/ADR-RES 21.3 µM | KM12 47.4 µM | SF-539 41 µM | SR 29.2 µM

c1ccc(CSP234N5CCN2CCN3CCN4CC5)c(CSP234N5CCN2CCN3CCN4CC5)c1
inactive: OVCAR-4 > 100 µM | SW-620 > 100 µM | SNB-75 28.3 µM | SNB-19 > 100 µM | SK-MEL-2 > 100 µM | IGROV-1 > 100 µM | NCI-H522 46.6 µM | HCT-116 > 100 µM | OVCAR-3 > 100 µM | HCC 2998 > 100 µM | HOP-92 46.2 µM | CCRF-CEM 45.4 µM | UACC-257 > 100 µM | NCI/ADR-RES > 100 µM | HL-60 3.65 µM | KM12 > 100 µM | SF-539 41.7 µM | SR 30.8 µM

C[C@@H](c1ccccc1)n1c(N)c(C#N)c2ccc([N+](=O)[O-])cc2c1=O
inactive: NCI-H226 1.68 µM | OVCAR-4 14.2 µM | SW-620 19.1 µM | SNB-75 5.51 µM | SNB-19 13.6 µM | SK-MEL-2 > 100 µM | HCT-116 14.4 µM | HCC 2998 15.5 µM | HOP-92 7.13 µM | CCRF-CEM 14.6 µM | UACC-257 18.7 µM | NCI/ADR-RES 7.1 µM | HL-60 8.75 µM | KM12 16.7 µM | SR 2.69 µM

CC(C)(C)NC(NC(C)(C)C)=C(C(Cl)=C(Cl)Cl)[N+](=O)[O-]
inactive: NCI-H226 > 100 µM | OVCAR-4 > 100 µM | SW-620 > 100 µM | SNB-75 > 100 µM | SNB-19 10.1 µM | RXF 393 > 100 µM | IGROV-1 > 100 µM | HCT-116 > 100 µM | OVCAR-3 > 100 µM | HCC 2998 > 100 µM | CCRF-CEM > 100 µM | UACC-257 67.6 µM | NCI/ADR-RES > 100 µM | HL-60 > 100 µM | KM12 > 100 µM | SF-539 > 100 µM | SR > 100 µM

COc1ccc(NC(=S)N/N=C(\C)c2nc3cccnc3[nH]2)cc1
inactive: NCI-H226 3.73 µM | OVCAR-4 4.94 µM | SW-620 6.87 µM | SNB-75 12.5 µM | SNB-19 5.32 µM | SK-MEL-2 16.4 µM | IGROV-1 5.55 µM | NCI-H522 7.03 µM | HCT-116 3.02 µM | OVCAR-3 1.79 µM | HCC 2998 7.55 µM | HOP-92 4.4 µM | CCRF-CEM 2.45 µM | UACC-257 3.52 µM | NCI/ADR-RES 6.62 µM | HL-60 2.69 µM | KM12 5.47 µM | SF-539 2.9 µM | SR 3.86 µM

O=C1CSC(c2ccccc2O)N1c1ccc(Oc2ccc(Cl)cc2)c(Cl)c1 (stereo unspecified)
inactive: NCI-H226 30.8 µM | OVCAR-4 20.7 µM | SW-620 31.4 µM | SNB-75 17.6 µM | SNB-19 22 µM | SK-MEL-2 24.3 µM | IGROV-1 8.91 µM | NCI-H522 15.3 µM | HCT-116 15.3 µM | OVCAR-3 18.6 µM | HCC 2998 17.7 µM | HOP-92 18.7 µM | CCRF-CEM 17.6 µM | UACC-257 26.2 µM | NCI/ADR-RES 20.6 µM | HL-60 16.6 µM | KM12 17.5 µM | SF-539 15.7 µM | SR 14.3 µM

CSC1(Cc2ccccn2)C(=O)Nc2cccc([N+](=O)[O-])c21 (stereo unspecified)
inactive: NCI-H226 > 100 µM | OVCAR-4 > 100 µM | SW-620 56.4 µM | SNB-75 > 100 µM | SNB-19 > 100 µM | SK-MEL-2 > 100 µM | IGROV-1 > 100 µM | NCI-H522 61.1 µM | HCT-116 79.1 µM | OVCAR-3 > 100 µM | HCC 2998 > 100 µM | HOP-92 > 100 µM | CCRF-CEM 48 µM | UACC-257 > 100 µM | NCI/ADR-RES > 100 µM | HL-60 42.3 µM | KM12 > 100 µM | SF-539 > 100 µM | SR > 100 µM

CO/C=C/C=C(\C#N)C(=O)OC
inactive: NCI-H226 > 100 µM | OVCAR-4 > 100 µM | SW-620 > 100 µM | SNB-75 60.3 µM | SNB-19 > 100 µM | SK-MEL-2 > 100 µM | IGROV-1 > 100 µM | NCI-H522 > 100 µM | HCT-116 > 100 µM | OVCAR-3 > 100 µM | HCC 2998 > 100 µM | HOP-92 > 100 µM | CCRF-CEM 26.3 µM | UACC-257 > 100 µM | NCI/ADR-RES > 100 µM | KM12 > 100 µM | SF-539 > 100 µM | SR > 100 µM

CC(C)N(/C(F)=N\C(=O)Nc1ccccc1C(F)(F)F)C(C)C
inactive: NCI-H226 > 100 µM | SW-620 44.7 µM | SNB-75 > 100 µM | SNB-19 49.9 µM | SK-MEL-2 22.8 µM | IGROV-1 33.8 µM | HCT-116 36.6 µM | OVCAR-3 32 µM | HCC 2998 31.3 µM | HOP-92 22.5 µM | CCRF-CEM 37.9 µM | UACC-257 55.1 µM | NCI/ADR-RES 41.5 µM | HL-60 31 µM | KM12 42.5 µM | SF-539 92 µM | SR 28.5 µM

CCn1nc(-c2ccccc2)c2c1N(C)c1ccccc1-n1c(-c3ccccc3)nnc1-2
inactive: NCI-H226 17.2 µM | SW-620 16.1 µM | SNB-75 3.69 µM | SNB-19 15.9 µM | SK-MEL-2 17.3 µM | IGROV-1 19.9 µM | HCT-116 13.1 µM | HCC 2998 15.9 µM | HOP-92 16.3 µM | CCRF-CEM 18.8 µM | NCI/ADR-RES 14.9 µM | HL-60 > 10 µM | SF-539 22.5 µM | SR 14.4 µM

COc1ccc(-n2c(C)nc3ccc(NC4OC(CO)C(O)C(O)C4O)cc3c2=O)cc1 (stereo unspecified)
inactive: NCI-H226 > 100 µM | OVCAR-4 > 100 µM | SW-620 > 100 µM | SNB-75 > 100 µM | SNB-19 > 100 µM | SK-MEL-2 97.5 µM | RXF 393 > 100 µM | IGROV-1 > 100 µM | NCI-H522 > 100 µM | HCT-116 > 100 µM | OVCAR-3 > 100 µM | HCC 2998 > 100 µM | UACC-257 > 100 µM | NCI/ADR-RES > 100 µM | HL-60 > 100 µM | KM12 > 100 µM | SR > 100 µM
